Results taken from article PMC9866191, “Novel 9-Benzylaminoacridine Derivatives as Dual Inhibitors of Phosphodiesterase 5 and Topoisomerase II for the Treatment of Colon Cancer” (Molecules, 2023).

What was measured:
M14 = experiment: NCI-60 one-dose screen; type: cell-based; conditions: Homo sapiens; M14, Melanoma panel; single dose 10^−5 M; read-out: Growth inhibition %
NCI-H522 = experiment: NCI-60 one-dose screen; type: cell-based; conditions: Homo sapiens; NCI-H522, Non-small cell lung panel; single dose 10^−5 M; read-out: Growth inhibition %
TK-10 = experiment: NCI-60 one-dose screen; type: cell-based; conditions: Homo sapiens; TK-10, Renal Cancer panel; single dose 10^−5 M; read-out: Growth inhibition %
SW-620 = experiment: NCI-60 one-dose screen; type: cell-based; conditions: Homo sapiens; SW-620, Colon Cancer panel; single dose 10^−5 M; read-out: Growth inhibition %
NCI-H460 = experiment: NCI-60 one-dose screen; type: cell-based; conditions: Homo sapiens; NCI-H460, Non-small cell lung panel; single dose 10^−5 M; read-out: Growth inhibition %
MCF7 = experiment: NCI-60 one-dose screen; type: cell-based; conditions: Homo sapiens; MCF7, Breast Cancer panel; single dose 10^−5 M; read-out: Growth inhibition %
HCT-15 = experiment: NCI-60 one-dose screen; type: cell-based; conditions: Homo sapiens; HCT-15, Colon Cancer panel; single dose 10^−5 M; read-out: Growth inhibition %
HS 578T = experiment: NCI-60 one-dose screen; type: cell-based; conditions: Homo sapiens, Breast Cancer panel, single dose 10^−5 M, read-out: Growth inhibition %
UACC-257 = experiment: NCI-60 one-dose screen; type: cell-based; conditions: Homo sapiens; UACC-257, Melanoma panel; single dose 10^−5 M; read-out: Growth inhibition %
HL-60(TB) = experiment: NCI-60 one-dose screen; type: cell-based; conditions: Homo sapiens, Leukemia panel, single dose 10^−5 M, read-out: Growth inhibition %
HT29 = experiment: NCI-60 one-dose screen; type: cell-based; conditions: Homo sapiens, HT-29; HT29, Colon Cancer panel; single dose 10^−5 M; read-out: Growth inhibition %
786-0 = experiment: NCI-60 one-dose screen; type: cell-based; conditions: Homo sapiens; 786-0, Renal Cancer panel; single dose 10^−5 M; read-out: Growth inhibition %
KM12 = experiment: NCI-60 one-dose screen; type: cell-based; conditions: Homo sapiens; KM12, Colon Cancer panel; single dose 10^−5 M; read-out: Growth inhibition %
A498 = experiment: NCI-60 one-dose screen; type: cell-based; conditions: Homo sapiens; A498, Renal Cancer panel; single dose 10^−5 M; read-out: Growth inhibition %
MDA-MB-468 = experiment: NCI-60 one-dose screen; type: cell-based; conditions: Homo sapiens; MDA-MB-468, Breast Cancer panel; single dose 10^−5 M; read-out: Growth inhibition %
BT-549 = experiment: NCI-60 one-dose screen; type: cell-based; conditions: Homo sapiens; BT-549, Breast Cancer panel; single dose 10^−5 M; read-out: Growth inhibition %
HCT-116 [1] = experiment: NCI-60 one-dose screen; type: cell-based; conditions: Homo sapiens, read-out: Growth inhibition %
MALME-3M = experiment: NCI-60 one-dose screen; type: cell-based; conditions: Homo sapiens, Melanoma panel, single dose 10^−5 M, read-out: Growth inhibition %
EKVX = experiment: NCI-60 one-dose screen; type: cell-based; conditions: Homo sapiens, Non-small cell lung panel, single dose 10^−5 M, read-out: Growth inhibition %
SF-539 = experiment: NCI-60 one-dose screen; type: cell-based; conditions: Homo sapiens; SF-539, CNS Cancer panel; single dose 10^−5 M; read-out: Growth inhibition %
SR = experiment: NCI-60 one-dose screen; type: cell-based; conditions: Homo sapiens, Leukemia panel, single dose 10^−5 M, read-out: Growth inhibition %
RPMI-8226 = experiment: NCI-60 one-dose screen; type: cell-based; conditions: Homo sapiens; RPMI-8226, Leukemia panel; single dose 10^−5 M; read-out: Growth inhibition %
NCI-H322M = experiment: NCI-60 one-dose screen; type: cell-based; conditions: Homo sapiens, Non-small cell lung panel, single dose 10^−5 M, read-out: Growth inhibition %
SK-MEL-28 = experiment: NCI-60 one-dose screen; type: cell-based; conditions: Homo sapiens; SK-MEL-28, Melanoma panel; single dose 10^−5 M; read-out: Growth inhibition %
MOLT-4 = experiment: NCI-60 one-dose screen; type: cell-based; conditions: Homo sapiens; MOLT-4, Leukemia panel; single dose 10^−5 M; read-out: Growth inhibition %
PC-3 = experiment: NCI-60 one-dose screen; type: cell-based; conditions: Homo sapiens; PC-3, Prostate Cancer panel; single dose 10^−5 M; read-out: Growth inhibition %
HCT-116 [2] = experiment: MTT cell proliferation assay, HCT-116; conditions: for % Inhibition at 10 µM: 72 h MTT, means ± SD; for IC50: read-out: IC50 μM, 72 h MTT, means ± SD, three experiments
CCD-966SK = experiment: MTT cell proliferation assay, CCD-966SK; conditions: CCD966SK skin fibroblast; 10 µM; 72 h MTT
PDE5A = target: T1, PDE5A (Homo sapiens, UniProt O76074); experiment: Phosphodiesterase 5 HTRF cGMP assay; type: biochemical; conditions: for IC50: means ± S.D. (n = 4), read-out: PDE5 IC50; for inhibition at 10 µM: read-out: PDE5 % Inhibition at 10 μM
T1 construct: purchased BPS Bioscience, San Diego, CA, USA
Description: All the synthesized acridine derivatives were tested for their in vitro ability to inhibit PDE5A at a screening dose of 10 µM.
The enzyme activities of phosphodiesterase 5 (PDE5) were measured using an HTRF cGMP assay kit (Cisbio, Codolet, France). […] Afterward, the HTRF reagent (cGMP-d2 and anti-cGMP-cryptate) was added for 1 h at 25 °C, and PDE activity was assayed on an HTRF reader (Tecan Infinite F200 Pro).

LOX IMVI = experiment: NCI-60 one-dose screen; type: cell-based; conditions: Homo sapiens, Melanoma panel, single dose 10^−5 M, read-out: Growth inhibition %

| Compound | inhibition at 10 µM (M14) | inhibition at 10 µM (NCI-H522) | inhibition at 10 µM (TK-10) | inhibition at 10 µM (SW-620) | inhibition at 10 µM (NCI-H460) | inhibition at 10 µM (MCF7) | inhibition at 10 µM (HCT-15) | inhibition at 10 µM (HS 578T) | inhibition at 10 µM (UACC-257) | inhibition at 10 µM (HL-60(TB)) | inhibition at 10 µM (HT29) | inhibition at 10 µM (786-0) | inhibition at 10 µM (KM12) | inhibition at 10 µM (A498) | inhibition at 10 µM (MDA-MB-468) | inhibition at 10 µM (BT-549) | inhibition at 10 µM (HCT-116 [1]) | inhibition at 10 µM (MALME-3M) | inhibition at 10 µM (EKVX) | inhibition at 10 µM (SF-539) | other results |
| --- | --- | --- | --- | --- | --- | --- | --- | --- | --- | --- | --- | --- | --- | --- | --- | --- | --- | --- | --- | --- | --- |
| Fc1cccc(CNc2c3ccccc3nc3ccccc23)c1F [Compound 20, Acridin-9-yl-(2,3-difluorobenzyl)-amine] | 29.4% | 46.1% | 10.8% | 58.6% | 52% | 70.2% | 60.5% | 13% | 7.14% | 24% | 70.9% | 34.6% | 13.1% | 101% | 78% | 9.44% | 82.5% | 5.87% | 37.1% | 44.5% | inhibition at 10 µM (SR): 61.8%; inhibition at 10 µM (RPMI-8226): 47.1%; inhibition at 10 µM (NCI-H322M): 36.6%; inhibition at 10 µM (SK-MEL-28): 3.12%; inhibition at 10 µM (MOLT-4): 71.6%; inhibition at 10 µM (PC-3): 42.9%; % Inhibition at 10 µM (HCT-116 [2]): 58.56 ± 3.21%; IC50 (HCT-116 [2]): 4.96 ± 0.02 µM; % Inhibition at 10 µM (CCD-966SK): 40.30 ± 3.56%; IC50 (PDE5A): 7.25 ± 2.21 µM; inhibition at 10 µM (PDE5A): 57.9 ± 6.04%; inhibition at 10 µM (LOX IMVI): 60.8% |
| COc1ccccc1CNc1c2ccccc2nc2ccccc12 [Compound 5, Acridin-9-yl-(2-methoxybenzyl)-amine] | 59.1% | 37.6% | 44.5% | 77.9% | 89.8% | 83.2% | 74% | 38% | 35.9% | 55.2% | 82.3% | 60.7% | 67.1% | 86.7% | 71.7% | 23% | 87.3% | 54.1% | 34.3% | 78.8% | inhibition at 10 µM (SR): 90.1%; inhibition at 10 µM (RPMI-8226): 91.9%; inhibition at 10 µM (NCI-H322M): 51.4%; inhibition at 10 µM (SK-MEL-28): 20%; inhibition at 10 µM (MOLT-4): 79.3%; inhibition at 10 µM (PC-3): 56.8%; % Inhibition at 10 µM (HCT-116 [2]): 63.71 ± 0.62%; IC50 (HCT-116 [2]): 6.83 ± 0.31 µM; % Inhibition at 10 µM (CCD-966SK): 6.65 ± 1.18%; IC50 (PDE5A): > 10 µM; inhibition at 10 µM (PDE5A): 45.1 ± 4.54%; inhibition at 10 µM (LOX IMVI): 81.1% |
| COc1ccc2nc3ccccc3c(NCc3ccc(Cl)cc3)c2c1 [Compound 29, (4-Chlorobenzyl)-(2-methoxyacridin-9-yl)-amine] | 186% | 65.3% | 47.1% | 87.2% | 87.5% | 156% | 95% | 64% | 152% | 164% | 102% | 177% | 59.9% | 91.4% | 131% | 49.8% | 93.2% | 182% | 66.2% | 106% | inhibition at 10 µM (SR): 130%; inhibition at 10 µM (RPMI-8226): 145%; inhibition at 10 µM (NCI-H322M): 75.4%; inhibition at 10 µM (SK-MEL-28): 92.9%; inhibition at 10 µM (MOLT-4): 108%; inhibition at 10 µM (PC-3): 80.5%; % Inhibition at 10 µM (HCT-116 [2]): 28.83 ± 2.64%; % Inhibition at 10 µM (CCD-966SK): 2.90 ± 2.51%; IC50 (PDE5A): 5.35 ± 1.01 µM; inhibition at 10 µM (PDE5A): 66.1 ± 3.27%; inhibition at 10 µM (LOX IMVI): 186% |
| c1ccc(CCNc2c3ccccc3nc3ccccc23)cc1 [Compound 23, Acridin-9-yl-phenethyl-amine] | 57.3% | 60.2% | 46.8% | 71.7% | 84.7% | 87.8% | 76.7% | 26.7% | 44.8% | 58.7% | 77.9% | 61.9% | 42.6% | 105% | 111% | 26.4% | 83.5% | 42.9% | 63.7% | 71.9% | inhibition at 10 µM (SR): 79.1%; inhibition at 10 µM (RPMI-8226): 80.5%; inhibition at 10 µM (NCI-H322M): 53.4%; inhibition at 10 µM (SK-MEL-28): 32.3%; inhibition at 10 µM (MOLT-4): 75.4%; inhibition at 10 µM (PC-3): 64.3%; % Inhibition at 10 µM (HCT-116 [2]): 40.12 ± 0.11%; % Inhibition at 10 µM (CCD-966SK): 11.36 ± 7.38%; IC50 (PDE5A): 6.68 ± 1.1 µM; inhibition at 10 µM (PDE5A): 57.3 ± 3.58%; inhibition at 10 µM (LOX IMVI): 82.4% |
